Measurements from US7468369B2, “Sulfonyl pyrrolidines, method for producing the same and their use as drugs” (Sanofi-Aventis, priority 2005, dated 2008).
Counter-ions that a name gives are not always drawn.

These compounds were tested on human ABCA1 promoter (assay: ABCA1 promoter test (luciferase reporter in stably transfected THP1 cell line)). Settings: ABCA1 reporter cell line (THP1, PMA-differentiated), 24 h incubation, luciferase chemiluminescence; read-out: E50 ABCA1.
Format: cell-based
Summary of the method: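 PMA-differentiated THP1 macrophages stably carrying a 3.2 kb human ABCA1 promoter-luciferase construct, treated 24 h at 37° C with 11 concentrations ([…] to 330 pM, DMSO <0.1%). Luciferase read by luminescence after lysis; EC50 from dose-response plots.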

Row | SMILES | EC50 [µM]
1 | COc1cccc(S(=O)(=O)N2CC(C(=O)N3CCN(c4cc(C)ccc4C)CC3)C(c3ccsc3)C2)c1 (stereo not drawn) [Example 110, [4-(2,5-Dimethylphenyl)piperazin-1-yl]-[1-(3-methoxybenzenesulfonyl)-3,4-trans-4-thiophen-3-ylpyrrolidin-3-yl]methanone trifluoroacetate] | 0.914

Same assay, conditions: Homo sapiens, THP-1; ABCA1 reporter cell line (THP1, PMA-differentiated), 24 h incubation, luciferase chemiluminescence; read-out: E50 ABCA1

Row | SMILES | EC50 [µM]
2 | COc1cccc(S(=O)(=O)N2C[C@@H](C)[C@H](C(=O)N3CCN(c4cc(C)ccc4C)CC3)C2)c1 [Example 91, [3,4-trans-4-(2,5-Dimethylphenyl)piperazin-1-yl]-[1-(3-methoxybenzene-sulfonyl)-4-methylpyrrolidin-3-yl]methanone trifluoroacetate] | 2.34
3 | Cc1ccc(C)c(N2CCN(C(=O)[C@@H]3CN(S(=O)(=O)c4c(C)noc4C)C[C@H]3Cc3ccccc3)CC2)c1 [Example 93, [3,4-trans-4-Benzyl-1-(3,5-dimethylisoxazole-4-sulfonyl)pyrrolidin-3-yl]-[4-(2,5-dimethylphenyl)piperazin-1-yl]methanone trifluoroacetate] | 2.48
4 | COc1cccc(S(=O)(=O)N2C[C@@H](Cc3ccccc3)[C@H](C(=O)N3CCN(c4cc(C)ccc4C)CC3)C2)c1 [Example 94, [3,4-trans-4-Benzyl-1-(3-methoxybenzenesulfonyl)pyrrolidin-3-yl]-[4-(2,5-dimethylphenyl)piperazin-1-yl]methanone trifluoroacetate] | 2.93
5 | Cc1ccc(C)c(N2CCN(C(=O)[C@@H]3CN(S(=O)(=O)c4c(C)noc4C)C[C@H]3C(C)C)CC2)c1 [Example 95, [1-(3,5-Dimethyl isoxazole-4-sulfonyl)-3,4-trans-4-isopropylpyrrolidin-3-yl]-[4-(2,5-dimethylphenyl)piperazin-1-yl]methanone trifluoroacetate] | 4.59
6 | COc1cccc(S(=O)(=O)N2C[C@@H](C(=O)N3CCN(c4cc(C)ccc4C)CC3)[C@H](C(C)C)C2)c1 [Example 96, [4-(2,5-Dimethylphenyl)piperazin-1-yl]-[3,4-trans-4-isopropyl-1-(3-methoxy-benzenesulfonyl)pyrrolidin-3-yl]methanone trifluoroacetate] | 3.6
7 | Cc1ccc(C)c(N2CCN(C(=O)[C@@H]3CN(S(=O)(=O)c4c(C)noc4C)C[C@H]3c3ccccc3C)CC2)c1 [Example 98, [1-(3,5-Dimethylisoxazole-4-sulfonyl)-3,4-trans-4-o-tolylpyrrolidin-3-yl]-[4-(2,5-dimethylphenyl)piperazin-1-yl]methanone trifluoroacetate] | 0.401
8 | COc1cccc(S(=O)(=O)N2C[C@@H](C(=O)N3CCN(c4cc(C)ccc4C)CC3)[C@H](c3ccccc3C)C2)c1 [Example 99, [4-(2,5-Dimethylphenyl)piperazin-1-yl]-[1-(3-methoxybenzenesulfonyl)-3,4-trans-4-o-tolylpyrrolidin-3-yl]methanone trifluoroacetate] | 0.707
9 | Cc1ccc(C)c(N2CCN(C(=O)[C@@H]3CN(S(=O)(=O)c4cccnc4)C[C@H]3c3ccccc3C)CC2)c1 [Example 100, [4-(2,5-Dimethylphenyl)piperazin-1-yl]-[1-(pyridine-3-sulfonyl)-3,4-trans-4-o-tolylpyrrolidin-3-yl]methanone trifluoroacetate] | 1.35
10 | Cc1cccc([C@@H]2CN(S(=O)(=O)c3c(C)noc3C)C[C@H]2C(=O)N2CCN(c3cc(C)ccc3C)CC2)c1 [Example 101, [1-(3,5-Dimethylisoxazole-4-sulfonyl)-3,4-trans-4-m-tolylpyrrolidin-3-yl]-[4-(2,5-dimethylphenyl)piperazin-1-yl]methanone trifluoroacetate] | 1.85
11 | COc1cccc(S(=O)(=O)N2C[C@@H](C(=O)N3CCN(c4cc(C)ccc4C)CC3)[C@H](c3cccc(C)c3)C2)c1 [Example 102, [4-(2,5-Dimethylphenyl)piperazin-1-yl]-[1-(3-methoxybenzenesulfonyl)-3,4-trans-4-m-tolylpyrrolidin-3-yl]methanone trifluoroacetate] | 1.05
12 | COc1cccc(S(=O)(=O)N2C[C@@H](C(=O)N3CCN(c4cc(C)ccc4C)CC3)[C@H](c3c(C)noc3C)C2)c1 [Example 104, [3,4-trans-4-(3,5-Dimethylisoxazol-4-yl)-1-(3-methoxybenzenesulfonyl)-pyrrolidin-3-yl]-[4-(2,5-dimethylphenyl)piperazin-1-yl]methanone trifluoroacetate] | 6.27
13 | Cc1ccc(C)c(N2CCN(C(=O)[C@@H]3CN(S(=O)(=O)c4c(C)noc4C)C[C@H]3c3c(C)cccc3C)CC2)c1 [Example 106, [1-(3,5-Dimethylisoxazole-4-sulfonyl)-3,4-trans-4-(2,6-dimethylphenyl)pyrrolidin-3-yl]-[4-(2,5-dimethylphenyl)piperazin-1-yl]methanone trifluoroacetate] | 0.372
14 | Cc1ccc(C)c(N2CCN(C(=O)[C@@H]3CN(S(=O)(=O)c4c(C)noc4C)C[C@H]3c3cccc4c3OCO4)CC2)c1 [Example 108, [3,4-trans-4-Benzo[1,3]dioxol-4-yl-1-(3,5-dimethylisoxazole-4-sulfonyl)-pyrrolidin-3-yl]-[4-(2,5-dimethylphenyl)piperazin-1-yl]methanone trifluoroacetate] | 0.585
15 | Cc1ccc(C)c(N2CCN(C(=O)[C@@H]3CN(S(=O)(=O)c4c(C)noc4C)C[C@H]3c3ccsc3)CC2)c1 [Example 111, [1-(3,5-Dimethylisoxazole-4-sulfonyl)-3,4-trans-4-thiophen-3-ylpyrrolidin-3-yl]-[4-(2,5-dimethylphenyl)piperazin-1-yl]methanone trifluoroacetate] | 0.867
16 | Cc1ccc(C)c(N2CCN(C(=O)[C@@H]3CN(S(=O)(=O)c4c(C)noc4C)C[C@H]3c3cccnc3)CC2)c1 [Example 112, [1-(3,5-Dimethylisoxazole-4-sulfonyl)-3,4-trans-4-pyridin-3-ylpyrrolidin-3-yl]-[4-(2,5-dimethylphenyl)piperazin-1-yl]methanone trifluoroacetate] | 14.3
17 | COc1cccc(S(=O)(=O)N2C[C@@H](C(=O)N3CCN(c4cc(C)ccc4C)CC3)[C@H](c3ccoc3)C2)c1 [Example 114, [4-(2,5-Dimethylphenyl)piperazin-1-yl]-[3,4-trans-4-furan-3-yl-1-(3-methoxybenzenesulfonyl)pyrrolidin-3-yl]methanone trifluoroacetate] | 2.14
18 | Cc1ccc(C)c(N2CCN(C(=O)[C@@H]3CN(S(=O)(=O)c4c(C)noc4C)C[C@H]3c3ccoc3)CC2)c1 [Example 115, [1-(3,5-Dimethylisoxazole-4-sulfonyl)-3,4-trans-4-furan-3-ylpyrrolidin-3-yl]-[4-(2,5-dimethylphenyl)piperazin-1-yl]methanone trifluoroacetate] | 2.64
19 | Cc1ccc(C)c(N2CCN(C(=O)[C@@H]3CN(S(=O)(=O)c4cccnc4)C[C@H]3c3ccoc3)CC2)c1 [Example 116, [4-(2,5-Dimethylphenyl)piperazin-1-yl]-[3,4-trans-4-furan-3-yl-1-(pyridine-3-sulfonyl)pyrrolidin-3-yl]methanone trifluoroacetate] | 10.8
20 | Cc1ccc(C)c(N2CCN(C(=O)[C@H]3CN(S(=O)(=O)c4c(C)noc4C)C[C@H]3c3ccccc3)CC2)c1 [Example 118, [1-(3,5-Dimethylisoxazole-4-sulfonyl)-3,4-cis-4-phenylpyrrolidin-3-yl]-[4-(2,5-dimethylphenyl)piperazin-1-yl]methanone trifluoroacetate] | 0.346
21 | COc1cccc(S(=O)(=O)N2C[C@H](C(=O)N3CCN(c4cc(C)ccc4C)CC3)[C@H](c3ccccc3)C2)c1 [Example 119, [4-(2,5-Dimethylphenyl)piperazin-1-yl]-[1-(3-methoxybenzenesulfonyl)-3,4-cis-4-phenylpyrrolidin-3-yl]methanone trifluoroacetate] | 0.177
22 | Cc1ccc(C)c(N2CCN(C(=O)[C@H]3CN(S(=O)(=O)c4cccnc4)C[C@H]3c3ccccc3)CC2)c1 [Example 120, [4-(2,5-Dimethylphenyl)piperazin-1-yl]-[3,4-cis-4-phenyl-1-(pyridine-3-sulfonyl)pyrrolidin-3-yl]methanone trifluoroacetate] | 0.395
